The values below are quoted from earlier work in US20100143437A1, “IMPLANTABLE ANALGESIC” (priority 2008, published 2010).

Molecules are shown by their SMILES.

The conditions of this data set: in adults.

As for `CCCCN1CCCCC1C(=O)Nc1c(C)cccc1C` (stereo not shown) [bupivacaine, 1-butyl-N-(2,6-dimethylphenyl) piperidine-2-carboxamide], the half life result is “approximately 210 minutes”.
